Measurements published in publication PMC12467033, “Exploring the Inhibitory Potential of Six Porphyrin Compounds Against α-Amylase and α-Glucosidase Linked to Diabetes” (Biomolecules, 2025).
Where “and” joins values, the source holds several entries; their conditions need not be identical. Equal entries are not always repeated. Where two headings read alike, the source gives them in different places.

Assays:
α-glucosidase [1] = molecular target: T1, α-glucosidase (Saccharomyces cerevisiae, UniProt P53341); assay type: biochemical; conditions: for type of inhibition of α-glucosidase: Lineweaver–Burk plots; for reversibility of inhibition of α-glucosidase: enzyme 100–400 U/L, substrate 5 mmol/L; for Kis: enzyme–substrate complex inhibition constant; for Ki: free enzyme inhibition constant
Source text: In the experiment, the concentration of the fixed substrate Gal-G2-α-CNP/pNPG solution was 5 mmol/L, and the concentrations of the two enzymes (100, 200, 300, 400 U/L) were used to determine the effect of different concentrations of porphyrins on enzyme activity. The concentration of the enzyme was 200 U/L, and the concentration of the substrate Gal-G2-α-CNP/pNPG solution (2.5, 5, 7.5, 10 mmol/L) was used to determine the effect of different concentrations of porphyrins on the enzyme-catalyzed substrate activity.
Upon identifying the type of inhibition, the kinetic equations vary for different inhibition types.
In the formula, v, Vmax, Km, Ki, and Kis represent the reaction rate, maximum reaction rate, Michaelis constant, and free enzyme inhibition constant, respectively, and the binding enzyme inhibition constant. [S] denotes the substrate concentration. [I] denotes the inhibitor concentration.

α-amylase [2] = molecular target: T2, α-amylase (Sus scrofa, UniProt P00690); experiment: Fluorescence quenching, binding and thermodynamics with α-amylase; conditions: for quenching mechanism of α-amylase fluorescence: Stern–Volmer plots; for ΔH^0 / ΔS^0: Van’t Hoff
T2 sequence (P00690 16-511): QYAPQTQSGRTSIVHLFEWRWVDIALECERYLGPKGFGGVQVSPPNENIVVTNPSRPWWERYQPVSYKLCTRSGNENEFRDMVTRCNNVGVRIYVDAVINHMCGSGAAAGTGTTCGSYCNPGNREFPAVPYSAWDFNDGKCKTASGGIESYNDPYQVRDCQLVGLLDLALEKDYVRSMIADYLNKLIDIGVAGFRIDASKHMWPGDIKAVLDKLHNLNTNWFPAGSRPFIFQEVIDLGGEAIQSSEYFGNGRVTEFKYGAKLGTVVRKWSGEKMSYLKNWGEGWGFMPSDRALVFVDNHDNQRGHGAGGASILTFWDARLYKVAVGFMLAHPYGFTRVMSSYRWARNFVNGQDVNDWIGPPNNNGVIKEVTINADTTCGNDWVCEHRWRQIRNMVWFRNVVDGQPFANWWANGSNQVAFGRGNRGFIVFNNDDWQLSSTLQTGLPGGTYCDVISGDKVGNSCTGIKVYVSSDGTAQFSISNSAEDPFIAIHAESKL
Source text: In the α-amylase experiment, a series of porphyrins and amylase (200 U/L) were mixed in a volume ratio of 1:1.
(§1) The Stern–Volmer equation [35] was adopted to determine the quenching mechanisms between six porphyrin compounds and both enzymes in the experimental group, with Formula (6):(6) F0/F=1+Ksv[Q]=1+Kqτ0[Q]
(§2) The Stern–Volmer equation was adapted based on experimental data to more accurately characterize the quenching behavior [36], with Formula (7):(7) F0/F=e^Ksv[Q]=e^Kqτ0[Q]
(§3) In the formula, the fluorescence quenching ratio was calculated as F0/F, where F0 corresponds to the emission intensity of pure α-amylase solution (control) and F denotes the intensity measured after the incremental addition of porphyrin ligands. KSV and Kq denote the Stern–Volmer quenching constant and the bimolecular quenching rate constant, respectively, τ0 (10^−8 s) is the average fluorescence lifetime of the fluorophore in the absence of quencher, and [Q] indicates the concentration of porphyrin compounds.
(§4) Due to the presence of an internal filtration effect, a decrease in the fluorescence intensity of the system may occur. Therefore, all fluorescence data were corrected using Formula (8) to eliminate the internal filtration effect.(8) Fcor=Fobse^(Aex+Aem)/2
(§5) The evaluation of the interaction forces between porphyrin compounds and the two enzymes can be achieved by calculating thermodynamic parameters. When both ΔH^0 and ΔS^0 are positive, the predominant interaction force is hydrophobic. When both ΔH^0 and ΔS^0 are negative, the main forces are hydrogen bonding and van der Waals forces. When ΔH^0 < 0 and ΔS^0 > 0, the primary interaction is electrostatic attraction.
(§6) The thermodynamic parameters were calculated using Formulas (9) and (10), and then the Van’t Hoff plot for the interactions between the porphyrin compounds and the two enzymes was generated by plotting lnKa on the Y-axis versus 1/T on the X-axis.(9) lnKa=−ΔH^0/RT+ΔS^0/R (10) ΔG^0=ΔH^0−TΔS^0=−RTlnKa

α-glucosidase [3] = molecular target: T1, α-glucosidase; experiment: Fluorescence quenching, binding and thermodynamics with α-glucosidase; conditions: for binding constants K: 310 K; for quenching mechanism of α-glucosidase fluorescence: Stern–Volmer plots; for quenching mechanism of α-glucosidase fluorescence / ΔH^0 / ΔS^0: 298–310 K; for ΔH^0 / ΔS^0: Van’t Hoff
Method: In the α-amylase experiment, a series of porphyrins and amylase (200 U/L) were mixed in a volume ratio of 1:1. In the α-glucosidase experiment, the glucosidase concentration was 400 U/L, mixed in a volume ratio of 1:1; the samples were maintained at three different temperatures (298, 304, and 310 K) for 30 min, with excitation at 280 nm and emission scanning from 300 to 500 nm.
as §1, §2, §3, §4, §5, §6

α-amylase [4] = molecular target: T2, α-amylase; experiment: Three-dimensional fluorescence spectroscopy of α-amylase complexes; conditions: 298 K; TAPP 2.5, THPP 10, TCPP 10, Fe–TCPP 12.5, Ni–TCPP 17.5, Cu–TCPP 10 μg/mL
Method: At 298 K, with excitation wavelengths ranging from 200 to 600 nm (2 nm increments) and emission wavelengths from 200 to 600 nm, the influence of small molecules on enzyme conformation was assessed by examining peaks in 3D fluorescence spectra [41].

α-amylase [5] = molecular target: T2, α-amylase; experiment: FTIR secondary structure analysis of α-AMY complexes; conditions: enzyme–porphyrin molar ratio 1:2, amide I band
Source text: A molar ratio of 1:2 (α-amylase/α-glucosidase)–porphyrin solution was placed in a cryocentrifugal concentrator and the dried solid sample was mixed with dry KBr and measured using a Nicolet IS-50 FTIR Spectrometer (ThermoFisher, Waltham, MA, USA) with a scanning range of 4000–400 cm^−1 and a resolution of 4 cm^−1. The overlapping peaks in the amide I band (1700–1600 cm^−1) were further analyzed into multiple feature sub-peaks, and quantitative analysis of the relative content of various secondary structures in proteins using curve fitting methods was performed.

T1 sequence (P53341 whole entry): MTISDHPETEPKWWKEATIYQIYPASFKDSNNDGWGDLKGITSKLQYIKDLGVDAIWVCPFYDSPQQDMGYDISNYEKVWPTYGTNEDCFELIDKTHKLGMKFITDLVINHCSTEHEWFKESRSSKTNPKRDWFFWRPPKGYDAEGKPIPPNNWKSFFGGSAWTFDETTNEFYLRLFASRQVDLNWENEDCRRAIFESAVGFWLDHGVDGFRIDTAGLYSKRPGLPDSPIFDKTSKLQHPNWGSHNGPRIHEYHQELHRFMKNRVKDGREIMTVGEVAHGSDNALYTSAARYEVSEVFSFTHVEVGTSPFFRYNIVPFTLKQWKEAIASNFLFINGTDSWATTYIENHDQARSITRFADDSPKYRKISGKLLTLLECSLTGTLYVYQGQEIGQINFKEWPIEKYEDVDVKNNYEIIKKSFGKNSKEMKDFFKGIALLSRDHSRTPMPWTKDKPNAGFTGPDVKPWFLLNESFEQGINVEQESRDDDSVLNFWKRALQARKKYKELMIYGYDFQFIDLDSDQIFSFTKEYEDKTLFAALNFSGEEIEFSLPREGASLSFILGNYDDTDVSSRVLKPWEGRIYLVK

## O=C(O)c1ccc(-c2c3nc(c(-c4ccc(C(=O)O)cc4)c4ccc([nH]4)c(-c4ccc(C(=O)O)cc4)c4nc(c(-c5ccc(C(=O)O)cc5)c5ccc2[nH]5)C=C4)C=C3)cc1.[Cu+2] [Cu–TCPP, copper (II) meso-tetra (4-carboxyphenyl)porphyrin]
α-glucosidase [1]
  Km: 3.3657 ± 0.0431 µg/mL and 3.8284 ± 0.1475 µg/mL and 4.7824 ± 0.1009 µg/mL and 5.4948 ± 0.1841 µg/mL and 6.4626 ± 0.1103 µg/mL
  type of inhibition of α-glucosidase: mixed type
  reversibility of inhibition of α-glucosidase: reversible inhibition
  Kis: 38.9429 ± 0.1021 µg/mL
  Ki: 13.7332 ± 0.0823 mg/L
α-glucosidase [1]; C 5 μg/mL
  Vmax: 0.1496 ± 0.0019 ΔOD/min
α-glucosidase [1]; C 10 μg/mL
  Vmax: 0.1344 ± 0.0052 ΔOD/min
α-glucosidase [1]; C 25 μg/mL
  Vmax: 0.1028 ± 0.0022 ΔOD/min
α-glucosidase [1]; C 50 μg/mL
  Vmax: 0.0718 ± 0.0024 ΔOD/min
α-glucosidase [1]; C 100 μg/mL
  Vmax: 0.0473 ± 0.0008 ΔOD/min
α-amylase [2]; 298–310 K
  Ka: 10^3–10^4 L/mol
  quenching mechanism of α-amylase fluorescence: pure static quenching
  ΔH^0: -79.68 ± 0.07 kJ/mol
  ΔS^0: −185.16 ± 0.05 J/mol/k
α-amylase [2]; T 298 K
  Ka (binding constant): 0.20 ± 0.01 ×10^5 L/mol
  Kq: 4.37 ± 0.07 ×10^12 L/mol/s
  Ksv: 4.37 ± 0.07 ×10^4 L/mol
  n (number of binding sites): 0.93
  ΔG^0: -24.55 ± 0.05 kJ/mol
α-amylase [2]; T 304 K
  Ka (binding constant): 0.10 ± 0.01 ×10^5 L/mol
  Kq: 4.33 ± 0.03 ×10^12 L/mol/s
  Ksv: 4.33 ± 0.03 ×10^4 L/mol
  n (number of binding sites): 0.84
  ΔG^0: -23.29 ± 0.03 kJ/mol
α-amylase [2]; T 310 K
  Ka (binding constant): 0.06 ± 0.01 ×10^5 L/mol
  Kq: 4.32 ± 0.02 ×10^12 L/mol/s
  Ksv: 4.32 ± 0.02 ×10^4 L/mol
  n (number of binding sites): 0.78
  ΔG^0: -22.33 ± 0.05 kJ/mol
α-glucosidase [3]
  binding constants K: (0.69 ± 0.01) × 10^5 L·mol^−1
  quenching mechanism of α-glucosidase fluorescence: static quenching
  ΔH^0: -280.76 ± 0.13 kJ/mol
  ΔS^0: −812.45 ± 0.17 J/mol/k
α-glucosidase [3]; T 298 K
  Ka (binding constant): 55.21 ± 0.11 ×10^5 L/mol
  Kq: 7.35 ± 0.09 ×10^12 L/mol/s
  Ksv: 7.35 ± 0.09 ×10^4 L/mol
  n (number of binding sites): 1.44
  ΔG^0: -38.46 ± 0.08 kJ/mol
α-glucosidase [3]; T 304 K
  Ka (binding constant): 7.38 ± 0.04 ×10^5 L/mol
  Kq: 6.74 ± 0.03 ×10^12 L/mol/s
  Ksv: 6.74 ± 0.03 ×10^4 L/mol
  n (number of binding sites): 1.25
  ΔG^0: -34.15 ± 0.05 kJ/mol
α-glucosidase [3]; T 310 K
  Ka (binding constant): 0.69 ± 0.01 ×10^5 L/mol
  Kq: 5.05 ± 0.02 ×10^12 L/mol/s
  Ksv: 5.05 ± 0.02 ×10^4 L/mol
  n (number of binding sites): 1.03
  ΔG^0: -28.70 ± 0.04 kJ/mol
α-amylase [4]
  Peak 1 Fluorescence Intensity: 313.1
  Peak 2 Fluorescence Intensity: 16.48
α-amylase [5]
  Random Coil: 20.94 ± 0.06%
  α-Helix: 20.76 ± 0.05%
  β-Antiparallel: 12.17 ± 0.02%
  β-Sheet: 10.94 ± 0.01%
  β-Turn: 35.19 ± 0.06%

## O=C(O)c1ccc(-c2c3nc(c(-c4ccc(C(=O)O)cc4)c4ccc([nH]4)c(-c4ccc(C(=O)O)cc4)c4nc(c(-c5ccc(C(=O)O)cc5)c5ccc2[nH]5)C=C4)C=C3)cc1.[Ni+2] [Ni–TCPP, nickel (II) meso-tetra (4-carboxyphenyl) porphine]
α-glucosidase [1]
  Km: 3.0491 ± 0.0776 µg/mL and 3.3243 ± 0.0748 µg/mL and 3.5279 ± 0.0812 µg/mL and 3.8090 ± 0.1419 µg/mL and 4.1248 ± 0.0704 µg/mL
  type of inhibition of α-glucosidase: mixed type
  reversibility of inhibition of α-glucosidase: reversible inhibition
  Kis: 9.2257 ± 0.0312 µg/mL
  Ki: 3.8703 ± 0.0201 mg/L
α-glucosidase [1]; C 5 μg/mL
  Vmax: 0.1036 ± 0.0026 ΔOD/min
α-glucosidase [1]; C 7.5 μg/mL
  Vmax: 0.0909 ± 0.0020 ΔOD/min
α-glucosidase [1]; C 10 μg/mL
  Vmax: 0.0791 ± 0.0018 ΔOD/min
α-glucosidase [1]; C 15 μg/mL
  Vmax: 0.0628 ± 0.0023 ΔOD/min
α-glucosidase [1]; C 25 μg/mL
  Vmax: 0.0444 ± 0.0008 ΔOD/min
α-amylase [2]; 298–310 K
  quenching mechanism of α-amylase fluorescence: pure static quenching
  ΔH^0: -326.36 ± 0.18 kJ/mol
  ΔS^0: −961.90 ± 0.08 J/mol/k
α-amylase [2]; T 298 K
  Ka (binding constant): 99.31 ± 0.12 ×10^5 L/mol
  Kq: 9.78 ± 0.03 ×10^12 L/mol/s
  Ksv: 9.78 ± 0.03 ×10^4 L/mol
  n (number of binding sites): 1.44
  ΔG^0: -39.92 ± 0.08 kJ/mol
α-amylase [2]; T 304 K
  Ka (binding constant): 5.75 ± 0.04 ×10^5 L/mol
  Kq: 8.47 ± 0.07 ×10^12 L/mol/s
  Ksv: 8.47 ± 0.07 ×10^4 L/mol
  n (number of binding sites): 1.19
  ΔG^0: -33.52 ± 0.06 kJ/mol
α-amylase [2]; T 310 K
  Ka (binding constant): 0.61 ± 0.02 ×10^5 L/mol
  Kq: 7.11 ± 0.05 ×10^12 L/mol/s
  Ksv: 7.11 ± 0.05 ×10^4 L/mol
  n (number of binding sites): 0.99
  ΔG^0: -28.39 ± 0.07 kJ/mol
α-glucosidase [3]
  binding constants K: (1.83 ± 0.01) × 10^5 L·mol^−1
  quenching mechanism of α-glucosidase fluorescence: static quenching
  ΔH^0: -15.84 ± 0.05 kJ/mol
  ΔS^0: 49.67 ± 0.08 J/mol/k
α-glucosidase [3]; T 298 K
  Ka (binding constant): 2.34 ± 0.04 ×10^5 L/mol
  Kq: 17.73 ± 0.15 ×10^12 L/mol/s
  Ksv: 17.73 ± 0.15 ×10^4 L/mol
  n (number of binding sites): 1.03
  ΔG^0: -30.63 ± 0.13 kJ/mol
α-glucosidase [3]; T 304 K
  Ka (binding constant): 2.09 ± 0.02 ×10^5 L/mol
  Kq: 14.23 ± 0.09 ×10^12 L/mol/s
  Ksv: 14.23 ± 0.09 ×10^4 L/mol
  n (number of binding sites): 1.04
  ΔG^0: -30.96 ± 0.06 kJ/mol
α-glucosidase [3]; T 310 K
  Ka (binding constant): 1.83 ± 0.01 ×10^5 L/mol
  Kq: 12.31 ± 0.08 ×10^12 L/mol/s
  Ksv: 12.31 ± 0.08 ×10^4 L/mol
  n (number of binding sites): 1.03
  ΔG^0: -31.23 ± 0.07 kJ/mol
α-amylase [4]
  Peak 1 Fluorescence Intensity: 225.2
  Peak 2 Fluorescence Intensity: 9.012
α-amylase [5]
  Random Coil: 21.40 ± 0.05%
  α-Helix: 20.76 ± 0.06%
  β-Antiparallel: 10.30 ± 0.03%
  β-Sheet: 11.20 ± 0.02%
  β-Turn: 36.33 ± 0.13%
